# Data reported in patent publication US10800790B2, “Sesquiterpenoid STAT3 inhibitors” (University of Hawaii, priority 2013, dated 2020).
# Columns and labels:
# U251 MG cells = experiment: iTRAQ proteomics with immunoblot validation, U251 MG cells; assay type: cell-based, human
# Method: To investigate the possibility that the hirsutinolides could induce global molecular changes in the sensitive malignant cells, lysates were prepared from U251 MG cells untreated or treated with 6 or 22 for 1 h and analyzed by isobaric peptide labeling and nanoLC-MS/MS analysis (iTRAQ) proteomics method (Ross, P. L., et al., Multiplexed protein quantitation in Saccharomyces cerevisiae using amine-reactive isobaric tagging reagents, Mol Cell Proteomics., 2004. 3: p. 1154-69), as described in the Examples section. A search was pursed of the 341,908 mass spectrometry spectra using ProteinPilot (version 4.5; Applied Biosystems) against the National Center for Biotechnology Information non-redundant reference sequence (NCBInr) human database and based on the criteria of choosing only proteins with at least 95% confidence and with a “Local False Discovery Rate” no higher than 5%, as calculated from the slope of the accumulated Decoy database hits by the PSPEP estimation. […]
# Cellular samples were prepared according to the Pennsylvania STATe University College of Medicine Mass Spectrometry and Proteomics Core (MSPC) facility (Hershey, Pa.) standard protocol, adapted from the manufacturer's instructions (Applied Biosystems Sciex, Foster City, Calif.), combined with filter-aided sample preparation, as previously reported. […] For iTRAQ analysis (Ross, P. L., et al., Multiplexed protein quantitation in Saccharomyces cerevisiae using amine-reactive isobaric tagging reagents, Mol Cell Proteomics., 2004, 3: p. 1154-69), one hundred micrograms of whole-cell lysates from U251 MG cells untreated (DMSO control) or treated with 5 micromolar of compounds 22 or 6 for 1 h were independently digested, and their corresponding cellular proteins were differently labeled with 114, 115 or 117 tags, respectively, using iTRAQ reagents. […] Protein identification and quantification for iTRAQ samples were carried out using ProteinPilot™ software (version 4.5; Applied Biosystems, MDS-Sciex, Framingham, Mass.). […]
# [1] = tested on: GSH levels in U251 MG cells; experiment: Glutathione (GSH) levels in U251 MG cells
# Method: Reduced glutathione (GSH) and oxidized glutathione disulfide (GSSG) levels were assayed using a commercially available kit (Cayman Chemical, Ann Arbor, Mich.) and following the manufacturer's instructions.
# [2] = tested on: STAT3 DNA-binding activity; experiment: STAT3 DNA-binding activity (EMSA) of nuclear extracts from treated tumor cells; details: 5 micromolar, time course
# Method: Positions of STATs:DNA complexes or proteins in gel are labeled; control lanes (0) represent nuclear extracts or whole-cell lysates prepared from 0.05% DMSO-treated cells.
# Nuclear extract preparations and DNA-binding/electrophoretic mobility shift assay (EMSA) were carried out as previously described (Xu, supra). Nuclear extract preparations and DNA-binding activity/electrophoretic mobility shift assay (EMSA) were carried out as previously described. U251 MG and MDA-MB-231 cells culture were pretreated with different concentrations of the compounds for the indicated period and then harvested for nuclear extract preparation and DNA-binding assay with EMSA analysis. […] Except where indicated, nuclear extracts were pre-incubated with compound for 30 min at room temperature prior to incubation with the radiolabeled probe for 30 min at 30° C. before subjecting to EMSA analysis.
substance,measurement,setting,value
"(4S,6R,E)-4,7-dihydroxy-6,10-dimethyl-2-oxo-2,4,5,6,7,8,9,10-octahydro-7,10-epoxycyclodeca[b]furan-3-yl)methyl(E)-2-methylbut-2-enoate [Compound 22]",Expression of GCN1 (immunoblot),U251 MG cells; U251MG,reduced expression
same,Importin subunit α-2 up,"U251 MG cells; iTRAQ, 5 micromolar, 1 h",2 fold
same,MAP1B down,"U251 MG cells; iTRAQ, 5 micromolar, 1 h",~2 fold
same,Effect on GSH levels,[1],did not repress GSH levels
same,Inhibition of STAT3 DNA-binding activity in treated cells (EMSA),[2],early inhibition at 15-30 min
